Measured values reported in US11135214B2, “Methods for enhancing the bio availability and exposure of a voltage-gated potassium channel opener” (priority 2018, dated 2021).
Where “and” joins values, the source holds several entries; their conditions need not be identical. Equal entries are not always repeated. Entries after “also recorded” stand apart in the source; their conditions may differ. Where two headings read alike, the source gives them in different places.

Legend:
[1] = tested on: GABA-A receptor mediated intracortical inhibition; assay: TMS crossover study, short-interval intracortical inhibition (SICI); format: in vivo, human; details: for Short Intracortical Inhibition (Mean Conditioned MEP/Mean Unconditioned MEP): individual subjects; for Short Intracortical Inhibition (Mean Conditioned MEP/Mean Unconditioned MEP) / Short Intracortical Inhibition (Mean Conditioned MEP/Mean Unconditioned MEP), Mean: ISI 2 ms; for Short Intracortical Inhibition (Mean Conditioned MEP/Mean Unconditioned MEP), Mean: mean of subjects
Method: Short-interval intracortical inhibition (SICI) was measured using 15 conditioning-test stimuli pairs given in a random order at an interstimulus interval (ISI) of 2 ms. The conditioning stimulus was set at 80% of AMT and the suprathreshold stimulus 120% RMT. The calculation of SICI utilized custom scripts to measure the amplitudes of conditioned and unconditioned motor evoked potentials (MEPs) and to express SICI as the ratio of mean conditioned MEPs over mean unconditioned MEPs.

[2] = TMS crossover study, pharmacokinetic analysis; format: in vivo, human; details: for extrapolated area (% AUCextrap): full PK data set; for Compound A Plasma Concentration: individual subjects; for concentration at 2 h / concentration at 4 h / concentration at 6 h / half-life / AUC(0-t) / Cmax / Tmax / AUC(0-inf) / MRT inf / MRT last / CL/F / Vd/F: male, human, plasma, oral; for Vd/F: read-out: Vz/F normalized
Method: A randomized, double-blind, placebo-controlled, transcranial magnetic stimulation (TMS) crossover study investigated the safety, tolerability, pharmacokinetics (PK), and pharmacodynamics (PD) of single doses of Compound A in healthy right-handed male subjects.
Twenty healthy right-handed male subjects were enrolled and randomized in a blinded fashion to receive a single oral dose of 20 mg Compound A or placebo (1:1 randomization ratio) on Day 1, then were crossed over to receive a single dose of the other treatment on Day 7.
Subjects were screened within 27 days prior to entering the study on Day 1. For Period 1, subjects were admitted to the study unit and dosed on Day 1, and discharged on Day 2. For Period 2, following a washout of 6 days, the same subjects were again admitted to the study unit and dosed on Day 7, and discharged on Day 8. All subjects returned to the clinical unit for an outpatient visit on Day 14, and received a follow-up telephone call on Day 37.
Subjects were dosed in a fed state, but the timing of dosing relative to meals was changed during the study, and varied between a high fat or standard meal eaten either 2 h or 30 minutes prior to dosing, and a high fat or standard meal eaten 1 h or 2.5 h after dosing.
The PK parameters for this study were summarized in two ways. Firstly, PK parameters were calculated where possible using the PK samples collected during each 24 h sampling period for Period 1 and Period 2 separately. Secondly, PK parameters were determined using samples beyond the 24 h sampling period (i.e., from Day 7/8 and/or Day 14). For subjects who received Compound A in the first period, PK samples taken prior to placebo treatment provided additional PK timepoints at >24 h. For subjects who received Compound A in the second period, there was no >24 h PK timepoint until a Day 14 PK sample was added. […] The full PK profile data set consists of the 16 subjects for whom PK samples were taken at >24 h post-dose. For discussion of the PK parameters below, the full PK profile data set was generally used, because it allowed more accurate estimation of PK parameters.
Initially, subjects were dosed 2 hours after a high fat meal with a relatively high fat lunch provided 1 hour after dosing. After blinded review of the PK profiles in the initial 8 subjects, the fat content of the lunch was reduced in an attempt to reduce the time to Tmax, so that the Cmax would fall within the timeframe of TMS measurements. In addition, the timing of the meal relative to dose was changed from 2 hours prior, to 30 minutes prior to dose and subsequently the fat content of the breakfast was reduced. All these changes were made in attempts to provide higher plasma levels during the TMS assessment periods. The timing and type of meal for each subject is specified in Table 13. […] As such the PK data is presented without categorization according to meal content, or relative timing of the meal.

[3] = 20 mg, Full PK Profile (N=16), Mean ± SD
[4] = 20 mg, Full PK Profile (N=16), Range
[5] = 20 mg, Full PK Profile Data Set (N=16), Range
[6] = 20 mg, Full PK Profile Data Set (N=16), Mean ± SD

## Cc1cc(N2CCc3cc(F)ccc3C2)cc(C)c1NC(=O)CC(C)(C)C [Compound A, N-[4-(6-fluoro-3,4-dihydro-1H-isoquinolin-2-yl)-2,6-dimethylphenyl]-3,3-dimethylbutanamide]
[1]; 20 mg single dose
  SICI (mean conditioned MEPs/mean unconditioned MEPs): no significant findings; also recorded: lack of an effect on SICI
[1]; 2 h post-dose
  Short Intracortical Inhibition (Mean Conditioned MEP/Mean Unconditioned MEP): 0.71 and 0.72 and 1.29 and 0.91 (2×) and 0.94 and 1.11 and 0.96 and 1.18 and 2.68 and 0.92 (2×) and 0.97 and 1.12 and 1.31 and 1.09 and 1.03 and 0.85 and 0.67
  Short Intracortical Inhibition (Mean Conditioned MEP/Mean Unconditioned MEP), Mean: 1.07
[1]; 4 h post-dose
  Short Intracortical Inhibition (Mean Conditioned MEP/Mean Unconditioned MEP): 1.03 (2×) and 0.93 and 0.54 and 1.20 and 1.68 and 1.64 and 0.86 and 0.61 and 1.01 and 1.53 and 1.04 and 1.17 and 0.89 and 1.27 and 0.87 and 0.75 and 1.07 and 1.02
  Short Intracortical Inhibition (Mean Conditioned MEP/Mean Unconditioned MEP), Mean: 1.06
[2]; 20 mg oral dose
  time of median peak plasma concentrations after administration: approximately 8 hours
[2]; [3]
  Tlast: 235 ± 81.5 h
  half-life: 127 ± 84.6 h
[2]; [4]
  Tlast: 142 to 360 h
  Tmax: 1.92 to 12 h
  half-life: 48.2 to 306 h
[2]; [5]
  MRTinf: 33 ± 304 h
  t1/2: 48.2 ± 306 h
  AUC(0-inf): 1920 ± 7390 ng·h/mL
  MRT inf: 33 to 304 h
  MRT last: 48.2 ± 122 h
  half-life: 48.2 to 306 h
  Vd/F: 6.4 ± 33.8 L/kg
[2]; 20 mg, Overall (N=20), Mean
  Tlast: 23.8 h
[2]; 20 mg, Overall (N=20), Range
  Tlast: 23.1 to 24.3 h
  Tmax: 1.9 to 12 h
[2]; 20 mg, Period 1 (N=10), Mean
  Tlast: 23.8 h
[2]; 20 mg, Period 1 (N=10), Range
  Tlast: 23.1 to 24.3 h
  Tmax: 1.92 to 12 h
[2]; 20 mg, Period 2 (N=10), Mean
  Tlast: 23.8 h
[2]; 20 mg, Period 2 (N=10), Range
  Tlast: 23.5 to 24.1 h
  Tmax: 1.92 to 8.15 h
[2]; 20 mg, a number of subjects above 20%
  % AUCextrap, highest values: ≤ 40%
[2]; 20 mg, median
  extrapolated area (% AUCextrap): 19.9%
[2]; 20 mg, range
  extrapolated area (% AUCextrap): 10.6-40.5%
[2]; Compound A Treatment Period, 20 mg, 2 h, 5 minutes before TMS
  Compound A Plasma Concentration: 47.2 ng/mL and 1.55 ng/mL and 34 ng/mL and 0 ng/mL (5×) and 55.2 ng/mL and 10.6 ng/mL and 47.1 ng/mL and 3.1 ng/mL and 1.95 ng/mL and 25.7 ng/mL and 2.74 ng/mL and 10.7 ng/mL and 2.52 ng/mL and 8.01 ng/mL
[2]; Compound A Treatment Period, 20 mg, 4 h, 5 minutes before TMS
  Compound A Plasma Concentration: 38.7 ng/mL and 8.92 ng/mL and 48.4 ng/mL and 16.5 ng/mL and 50 ng/mL and 24.5 ng/mL and 38 ng/mL and 4.91 ng/mL and 2.54 ng/mL and 29.8 ng/mL and 4.06 ng/mL and 60.7 ng/mL and 22.3 ng/mL and 32.7 ng/mL and 52.1 ng/mL and 8.77 ng/mL and 41.9 ng/mL
[2]; Compound A Treatment Period, 20 mg, 6 h, 5 minutes before TMS
  Compound A Plasma Concentration: 49.7 ng/mL and 71.2 ng/mL and 48.5 ng/mL and 47.0 ng/mL and 39.1 ng/mL and 37.6 ng/mL and 4.43 ng/mL and 51.9 ng/mL and 6.23 ng/mL and 57.6 ng/mL and 53.2 ng/mL and 54.9 ng/mL and 52.2 ng/mL and 25.1 ng/mL and 79.4 ng/mL
[2]; Placebo Treatment Period (carry-over), 2 h
  Compound A Plasma Concentration: 0 ng/mL (9×) and 4.96 ng/mL and 5.27 ng/mL and 6.28 ng/mL and 3.81 ng/mL and 5.74 ng/mL and 3.94 ng/mL and 7.44 ng/mL and 8.04 ng/mL
[2]; Placebo Treatment Period (carry-over), 4 h
  Compound A Plasma Concentration: 0 ng/mL (9×) and 4.35 ng/mL and 4.48 ng/mL and 5.51 ng/mL and 3.6 ng/mL and 5.36 ng/mL and 3.66 ng/mL and 6.83 ng/mL and 8.15 ng/mL
[2]; Placebo Treatment Period (carry-over), 6 h
  Compound A Plasma Concentration: 0 ng/mL (8×) and 5.56 ng/mL and 5.75 ng/mL and 3.42 ng/mL and 5.61 ng/mL and 3.44 ng/mL and 6.67 ng/mL and 8.22 ng/mL
[2]; during TMS assessment (FIG. 11, 12)
  Average high concentration of Compound A: 45 ng/mL
[2]; 20 mg, Compound A Treatment Period, 2 h, Mean
  concentration at 2 h: 15.9 ng/mL
[2]; 20 mg, Compound A Treatment Period, 4 h, Mean
  concentration at 4 h: 30.1 ng/mL
[2]; 20 mg, Compound A Treatment Period, 6 h, Mean
  concentration at 6 h: 42.1 ng/mL
[2]; 20 mg, Full PK Profile (N=16), Mean ± SD, read-out: AUC0-24
  AUC(0-t): 692 ± 151 ng·h/mL
[2]; 20 mg, Full PK Profile (N=16), Mean ± SD, read-out: Cmax
  Cmax: 60.1 ± 14.9 ng/mL
[2]; 20 mg, Full PK Profile (N=16), Median
  Tmax: 6.83 h
[2]; 20 mg, Full PK Profile (N=16), Range, read-out: AUC0-24
  AUC(0-t): 383 to 951 ng·h/mL
[2]; 20 mg, Full PK Profile (N=16), Range, read-out: Cmax
  Cmax: 29.9 to 79.4 ng/mL
[2]; [6]
  AUC(0-inf): 3160 ng·h/mL
  MRT inf: 102 h
  MRT last: 77.4 ± 23.7 h
  half-life: 127 h
  Vd/F: 16.3 L/kg
[2]; 20 mg, Full PK Profile Data Set (N=16), Mean ± SD, read-out: AUClast
  AUC(0-t): 2370 ng·h/mL
[2]; 20 mg, Full PK Profile Data Set (N=16), Mean ± SD, read-out: CL/F normalized (converted)
  CL/F: 1.62 mL/min/kg
[2]; 20 mg, Full PK Profile Data Set (N=16), Range, read-out: AUClast
  AUC(0-t): 1580 ± 4400 ng·h/mL
[2]; 20 mg, Full PK Profile Data Set (N=16), Range, read-out: CL/F normalized (converted)
  CL/F: 0.672 mL/min/kg
[2]; 20 mg, Overall (N=20), 24 h sampling, Mean ± SD
  half-life: 11.1 ± 2.6 h
[2]; 20 mg, Overall (N=20), 24 h sampling, Range
  half-life: 8.01 to 14.9 h
[2]; 20 mg, Overall (N=20), Mean ± SD, read-out: AUC0-24
  AUC(0-t): 687 ± 160 ng·h/mL
[2]; 20 mg, Overall (N=20), Mean ± SD, read-out: Cmax
  Cmax: 59.2 ± 13.8 ng/mL
[2]; 20 mg, Overall (N=20), Median
  Tmax: 7.8 h
[2]; 20 mg, Overall (N=20), Range, read-out: AUC0-24
  AUC(0-t): 358 to 951 ng·h/mL
[2]; 20 mg, Overall (N=20), Range, read-out: Cmax
  Cmax: 29.9 to 79.4 ng/mL
[2]; 20 mg, Period 1 (N=10), 24 h sampling, Mean ± SD
  half-life: 11.4 ± 2.6 h
[2]; 20 mg, Period 1 (N=10), 24 h sampling, Range
  half-life: 8.46 to 14.9 h
[2]; 20 mg, Period 1 (N=10), Mean ± SD, read-out: AUC0-24
  AUC(0-t): 693 ± 184 ng·h/mL
[2]; 20 mg, Period 1 (N=10), Mean ± SD, read-out: Cmax
  Cmax: 60.2 ± 17.3 ng/mL
[2]; 20 mg, Period 1 (N=10), Median
  Tmax: 6.94 h
[2]; 20 mg, Period 1 (N=10), Range, read-out: AUC0-24
  AUC(0-t): 383 to 951 ng·h/mL
[2]; 20 mg, Period 1 (N=10), Range, read-out: Cmax
  Cmax: 29.9 to 77.1 ng/mL
[2]; 20 mg, Period 2 (N=10), 24 h sampling, Mean ± SD
  half-life: 10.6 ± 2.9 h
[2]; 20 mg, Period 2 (N=10), 24 h sampling, Range
  half-life: 8.01 to 14.3 h
[2]; 20 mg, Period 2 (N=10), Mean ± SD, read-out: AUC0-24
  AUC(0-t): 681 ± 142 ng·h/mL
[2]; 20 mg, Period 2 (N=10), Mean ± SD, read-out: Cmax
  Cmax: 58.3 ± 9.94 ng/mL
[2]; 20 mg, Period 2 (N=10), Median
  Tmax: 7.83 h
[2]; 20 mg, Period 2 (N=10), Range, read-out: AUC0-24
  AUC(0-t): 358 to 869 ng·h/mL
[2]; 20 mg, Period 2 (N=10), Range, read-out: Cmax
  Cmax: 46.2 to 79.4 ng/mL
[2]; 20 mg, Placebo Treatment Period (carry-over), 2 h, Mean, read-out: Compound A Plasma Concentration
  concentration at 2 h: 5.46 ng/mL
[2]; 20 mg, Placebo Treatment Period (carry-over), 4 h, Mean, read-out: Compound A Plasma Concentration
  concentration at 4 h: 5.17 ng/mL
[2]; 20 mg, Placebo Treatment Period (carry-over), 6 h, Mean, read-out: Compound A Plasma Concentration
  concentration at 6 h: 5.28 ng/mL
[2]; 20 mg, equivalent of 97.5 mL/h/kg, read-out: Body weight normalized clearance (CL/F)
  CL/F: ~1.6 mL/min/kg
[2]; 20 mg, subjects who received placebo in Period 2, mean, read-out: Cmax of Compound A in placebo treatment period
  Cmax: 5.84 ng/mL
[2]; 20 mg, subjects who received placebo in Period 2, range, read-out: Cmax of Compound A in placebo treatment period
  Cmax: 3.34 to 9.61 ng/mL
